In publication PMC3355380, “Back to the Future: Lessons Learned in Modern Target-based and Whole-Cell Lead Optimization of Antimalarials” (Current Topics in Medicinal Chemistry, 2012):
≈ marks a conversion by molar mass, not a printed value. Like-named read-outs stand apart in the source and are kept apart here. One block for each compound: values may come before it.

Columns and labels:
[1] = test system: Plasmodium berghei; assay: P. berghei murine model; type: in vivo; conditions: for Activity (%): average parasitemia reduction; for Cure Rate (%): cure was no parasites at day 30
[2] = test system: P. falciparum 3D7; assay: P. falciparum 3D7 proliferation assay; type: cell-based, Plasmodium falciparum; conditions: Plasmodium falciparum, 3D7
Text: (§1) We screened both our in-house compound collection (~2.3M compounds) and natural products library (12,000 compounds) using a cell based Plasmodium falciparum proliferation assay. This screen provided data on a large number of chemically diverse anti-malarial compounds. These nearly 5700 hits have been deposited into the public EBI database by GNF/Novartis. A number of these hits originated from kinase-directed libraries and many of which are pan-kinase inhibitors. De-convoluting and eliminating inherent kinase activity with many of these scaffolds while maintaining cellular potency was the first step in the hit-to-lead phase for these particular chemotypes. What follows is a summary of the chemical optimization of some kinase-like and non-kinase scaffolds which came out of the whole-cell screening effort.

[3] = aqueous solubility; type: physicochemical; conditions: aqueous medium, pH 6.8, aqueous buffer
[4] = test system: 40 mammalian kinases; assay: panel of 40 mammalian kinases; type: biochemical
[5] = PAMPA permeability assay; type: in vitro ADME
Text: Access to these types of in vitro assays, both within industry and academia, can greatly accelerate the drug discovery process.

[6] = test system: P. falciparum NF54; design: method as in PMID 20813948; conditions: Fig. 4; cited from earlier work
[7] = test system: chloroquine-resistant K1 P. falciparum strain; design: method as in PMID 20813948; conditions: Fig. 4; cited from earlier work
[8] = in vivo PK in mouse
[9] = test system: P. falciparum W2; assay: P. falciparum W2 proliferation assay; type: cell-based; conditions: Plasmodium falciparum, mean of two experiments
Text: as §1

[10] = test system: Huh7; assay: cytotoxicity on Huh7 cells; conditions: mean of two experiments
[11] = test system: P. falciparum NF54; assay: P. falciparum NF54 in vitro potency; type: cell-based; conditions: Plasmodium falciparum, spiroindolones, Tables 8 and 9
[12] = metabolic stability in mouse liver microsomes; type: in vitro ADME; conditions: for Liver Microsomes CLint, Mouse: intrinsic clearance, high clearance corresponds to low stability; for half-life: mouse, liver microsomes, read-out: Liver Microsomes t1/2 (min), Mouse
[13] = metabolic stability in human liver microsomes; type: in vitro ADME; conditions: for half-life: human, liver microsomes, read-out: Liver Microsomes t1/2 (min), Human; for Liver Microsomes CLint, Human: intrinsic clearance, high clearance corresponds to low stability
[14] = target: WT-PfDHFR (wild type PfDHFR); design: method as in PMID 20350951; conditions: cited from earlier work
[15] = target: QM-PfDHFR (quadruple mutant PfDHFR); design: method as in PMID 20350951; conditions: cited from earlier work
[16] = target: recombinant PfCDPK1 (Plasmodium falciparum, UniProt P62344); assay: PfCDPK1 enzyme inhibition; type: biochemical; conditions: mean of two experiments; read-out: PfCDPK1 IC50
Text: In P. falciparum, calcium-dependent protein kinase 1 (PfCDPK1) is expressed during schizogony in the blood and sporozoite stages and is ultimately required for parasite invasion of host cells, parasite motility, and potentially cytokinesis. We identified a series of purine-based, ATP competitive kinase inhibitors from a target-based screen of approximately 20,000 compounds on recombinant PfCDPK1 [9]. Of the most promising hits, the 2,6,9-trisubstitutes purines made up the largest class of compounds coming out of the screen and were therefore chosen as a lead series for chemical optimization.

[17] = 1 x 30 mg/kg, 7% Tween 80/3% ethanol (20: 75% PEG300/25%D5W)
[18] = 1 x 30 mg/kg, untreated mice 6-7 days
[19] = 1 x 100 mg/kg, untreated mice 6-7 days
[20] = 3 x 30 mg/kg, untreated mice 6-7 days
[21] = piperidyl benzamides, mean of two experiments, read-out: P. falciparum 3D7 EC50
[22] = purines, mean of two experiments, read-out: P. falciparum 3D7 EC50

recombinant PfCDPK1, sequence (P62344 whole entry): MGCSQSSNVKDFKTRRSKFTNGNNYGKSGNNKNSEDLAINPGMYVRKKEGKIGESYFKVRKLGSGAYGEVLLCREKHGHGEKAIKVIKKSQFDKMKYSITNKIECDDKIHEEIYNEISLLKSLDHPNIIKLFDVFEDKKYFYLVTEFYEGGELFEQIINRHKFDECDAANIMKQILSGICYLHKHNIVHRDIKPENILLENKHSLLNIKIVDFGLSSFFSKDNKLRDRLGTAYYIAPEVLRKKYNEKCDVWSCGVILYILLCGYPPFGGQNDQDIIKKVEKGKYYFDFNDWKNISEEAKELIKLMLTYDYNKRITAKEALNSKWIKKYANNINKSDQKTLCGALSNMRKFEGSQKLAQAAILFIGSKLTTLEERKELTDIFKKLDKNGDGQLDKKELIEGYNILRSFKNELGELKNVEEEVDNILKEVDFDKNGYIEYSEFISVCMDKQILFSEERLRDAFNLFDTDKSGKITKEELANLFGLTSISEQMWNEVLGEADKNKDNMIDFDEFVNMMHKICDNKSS

Structure (SMILES): C[C@H]1[C@H](OC(=O)CCC(=O)O)O[C@@H]2O[C@@]3(C)CC[C@H]4[C@H](C)CC[C@@H]1[C@@]24OO3 [AS, artesunate, reference compound]
- Activity (%) [1, 17]: 89%
- Activity (%) ([1]; 1 x 30 mg/kg, 10% ethanol, 30% PEG400, 6% vitamin E TPGS (30: 0.5% MCM / 0.1% Solutol HS15)): 92.2%
- Cure Rate (%) ([1]; 1 x 30 mg/kg): 0%
- Survival [1, 18]: 7.2 days
- Survival ([1]; 1 x 30 mg/kg, untreated mice 6-7 days, Table 10): 7.3 days
- Activity (%) ([1]; 1 x 100 mg/kg): 97%
- Survival [1, 19]: 6.7 days
- Survival ([1]; 3 x 30 mg/kg, 30 day experiment, Table 10): 11.8 days
- Activity (%) ([1]; 3 x 30 mg/kg): 98%
- Activity (%) ([1]; 3 x 30 mg/kg, Table 10): 99.0%
- Cure Rate (%) ([1]; 3 x 30 mg/kg): 0%
- Survival [1, 20]: 7.2 days

Structure (SMILES): CC1CCc2c([nH]c3ccccc23)C2(N1)C(=O)Nc1ccc(Br)cc12 (stereo not shown) [Compound 21]
- mouse survival ([1]; single oral dose of 100 mg/kg): slight prolongation in mouse survival over control
- reduction in parasitemia ([1]; single oral dose of 100 mg/kg): 96%
- solubility [3]: 75 µM (≈ 29.7 µg/mL)
- permeability in a PAMPA assay [5]: 99%
- EC50 [6]: 90 nM
- EC50 [7]: 80 nM
- Cmax ([8]; in vivo, po, 25 mg/kg): 1400 nM
- bioavailability ([8]; in vivo, po, 25 mg/kg): 59%
- oral T1/2 ([8]; single 25 mg/kg oral dose): four

Structure (SMILES): CC1(C)N=C(N)N=C(N)N1c1ccc(Cl)cc1 [Cycloguanil]
- Ki [14]: 1.51 ± 0.1 nM
- Ki [15]: 454 ± 38 nM

Structure (SMILES): C[C@H]1Cc2c([nH]c3cc(F)c(F)cc23)[C@@]2(N1)C(=O)Nc1ccc(Cl)cc12 [Compound 29]
- EC50 [11]: 0.2 nM
- Liver Microsomes CLint, Mouse [12]: Low
- half-life [12]: 49.1 min
- half-life [13]: 56.4 min
- Liver Microsomes CLint, Human [13]: Low

Structure (SMILES): C[C@@H]1CCc2c([nH]c3ccccc23)[C@]2(N1)C(=O)Nc1ccc(Br)cc12 [Compound 23]
- EC50 [6]: > 5000 nM
- EC50 [7]: > 3000 nM

Structure (SMILES): N[C@H]1CC[C@H](Nc2nc(Nc3ccc(C(=O)N4CCCCC4)cc3)c3ncn(-c4ccc5c(c4)OCO5)c3n2)CC1 [Compound 4]
- IC50 [16]: 342 nM
- EC50 [2, 22]: 400 nM

Structure (SMILES): CC(C)(N)C(=O)N1CCn2c(nc(-c3ccc(F)cc3)c2Nc2ccc(F)c(Cl)c2)C1 [Compound 20]
- Activity (%) [1, 17]: 99.4%
- Survival [1, 18]: 7.7 days
- Activity (%) ([1]; 1 x 100 mg/kg): 99.4%
- Survival [1, 19]: 17.0 days
- Activity (%) ([1]; 3 x 30 mg/kg): 99.8%
- Survival [1, 20]: 17.7 days
- parasitemia reduction ([1]; at all dosing regimens): more than 99%

Now from value to compound, other results behind:

- EC50 ([2]; imidazolopyrimidines, Fig. 2, read-out: 3D7 EC50): 420 nM
- solubility [3]: 36 µM (≈ 17.3 µg/mL)
Structure (SMILES): FC(F)(F)Oc1ccc(Nc2cc(Nc3nccn3-c3cccc(C(F)(F)F)c3)ncn2)cc1 [Compound 16]
- activity against a panel of 40 mammalian kinases [4]: did not exhibit significant activity

- EC50 ([2]; imidazolopiperazine hits, mean of two experiments, read-out: P. falciparum 3D7 EC50): 116 nM
- EC50 ([9]; imidazolopiperazine hits): 119 nM
Structure (SMILES): CC(C)CC(N)C(=O)N1CCn2c(nc(-c3ccccc3)c2Nc2ccc3c(c2)OCO3)C1 (stereo not shown) [Compound 18c]
- Cytotoxicity (µM) Huh7 [10]: > 10 µM

- EC50 [11]: 3.5 nM
- Liver Microsomes CLint, Mouse [12]: Low
- half-life [12]: 53 min
- half-life [13]: 53.3 min
- Liver Microsomes CLint, Human [13]: Low
Structure (SMILES): C[C@H]1Cc2c([nH]c3cc(F)ccc23)[C@@]2(N1)C(=O)Nc1ccc(Cl)cc12 [Compound 28]

- EC50 [2, 21]: 97 ± 18 nM
- EC50 ([9]; piperidyl benzamides): 276 ± 14 nM
Structure (SMILES): O=C(Nc1cccc(Cl)c1)c1cc(N2CCC(N3CCCCC3)CC2)cc(C(F)(F)F)c1 [Compound 12]

- IC50 [16]: 28 nM
- EC50 [2, 22]: > 10000 nM
Structure (SMILES): N[C@H]1CC[C@H](Nc2nc(Nc3ccc(C(=O)N4CCCCC4)cc3)c3ncn(-c4ccc(C(=O)O)cc4)c3n2)CC1 [Compound 7]

- EC50 [2, 21]: 58 nM
- EC50 ([9]; piperidyl benzamides): 211 nM
Structure (SMILES): CC1CCCN(C2CCN(c3cc(C(=O)Nc4cccc(C(F)(F)F)c4)cc(C(F)(F)F)c3)CC2)C1 (stereo not shown) [Compound 15]

- EC50 [2, 21]: 134 ± 56 nM
- EC50 ([9]; piperidyl benzamides): 888 ± 112 nM
Structure (SMILES): O=C(Nc1cccc(Cl)c1)c1cc(N2CCC(N3CCCC3)CC2)cc(C(F)(F)F)c1 [Compound 11]
